Read-outs that look alike come from different tables or passages of the source.
Experiments:
[1] = CC50 assay in Huh-7 HCV replicon cells (CellTiter-Glo); assay type: cell-based, human; settings: human, 50% cytostatic concentration
Summary of the method: (§1)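 Huh-7 cells carrying an HCV replicon, 6000 per well, were exposed to 3-fold serial compound dilutions (0.5% DMSO final where DMSO was used) for 3 days at 37 °C. EC50 was read by luciferase after cell lysis; CC50 was taken as 50% inhibition of cell growth.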

HCV replicon = assay: Anti-HCV assay / replicon assay (EC50, luciferase read-out); assay type: cell-based, hepatitis C virus (HCV); settings: for CC50/EC50: CC50/EC50 ratio (selectivity index); for EC50: Hepatitis C virus
Summary of the method: as §1

[2] = 72 h, human hepatoma Huh-7 cell line harbouring a HCV replicon, 3 days, luciferase luminescence, read-out: EC50

CCNc1nc(N)nc2ccc(-c3ccc(F)cc3)nc12 [Example 402, 2-amino-4-ethylamino-6-(4-fluorophenyl)pyrido[3,2-d]pyrimidine]
CC50 at 3 days [1]: 30 µM | CC50/EC50 (HCV replicon): 80 | EC50 (HCV replicon; [2]): 0.376 µM

CCOc1nc(N)nc2ccc(-c3cccc(F)c3)nc12 [Example 280, 2-amino-4-ethoxy-6-(m-fluorophenyl)-pyrido[3,2-d]-pyrimidine]
CC50 at 3 days [1]: 37.5 µM | CC50/EC50 (HCV replicon): 125 | EC50 (HCV replicon; [2]): 0.3 µM

Nc1nc(N2CCN(C(=O)COc3cccc(Cl)c3)CC2)c2nc(-c3ccc(F)cc3)ccc2n1 [Example 371, 2-amino-4-[4-(3-chlorophenoxy-acetyl)piperazin-1-yl]-6-(4-fluorophenyl)-pyrido[3,2-d]pyrimidine]
CC50 at 3 days [1]: 25.1 µM | CC50/EC50 (HCV replicon): 837 | EC50 (HCV replicon; [2]): 0.03 µM

Cc1cccc(OCC(=O)N2CCN(c3nc(N)nc4ccc(-c5ccc(F)cc5)nc34)CC2)c1 [Example 370, 2-amino-4-[4-(3-methylphenoxy-acetyl)piperazin-1-yl]-6-(4-fluorophenyl)-pyrido[3,2-d]pyrimidine]
CC50 at 3 days [1]: 3.4 µM | CC50/EC50 (HCV replicon): 65 | EC50 (HCV replicon; [2]): 0.052 µM

CCCOc1nc(N)nc2ccc(-c3ccc(F)cc3)nc12 [Example 283, 2-amino-4-n-propoxy-6-(p-fluorophenyl)-pyrido[3,2-d]pyrimidine]
CC50 at 3 days [1]: 21 µM | CC50/EC50 (HCV replicon): 221 | EC50 (HCV replicon; [2]): 0.095 µM

Nc1nc(N2CCN(C(=O)COc3ccc(Cl)cc3)CC2)c2nc(-c3ccc4c(c3)OCO4)ccc2n1 [Example 187, 2-amino-4-[N-(4-chlorophenoxy-acetyl)-piperazin-1-yl]-6-(3,4-methylenedioxyphenyl)-pyrido[3,2-d]pyrimidine]
CC50 at 3 days [1]: 1.2 µM | CC50/EC50 (HCV replicon): 64 | EC50 (HCV replicon; [2]): 0.019 µM

Nc1nc(N2CCN(C(=O)COc3ccc(Cl)cc3Cl)CC2)c2nc(-c3ccc(F)cc3)ccc2n1 [Example 372, 2-amino-4-[4-(2,4-dichlorophenoxy-acetyl)piperazin-1-yl]-6-(4-fluorophenyl)-pyrido[3,2-d]pyrimidine]
CC50 at 3 days [1]: 25.1 µM | CC50/EC50 (HCV replicon): 78 | EC50 (HCV replicon; [2]): 0.32 µM

CCOc1cccc(-c2ccc3nc(N)nc(OCC)c3n2)c1 [Example 549]
CC50 at 3 days [1]: 25.1 µM | CC50/EC50 (HCV replicon): 53 | EC50 (HCV replicon; [2]): 0.47 µM

COCCSc1nc(N)nc2ccc(-c3ccc(F)cc3)nc12 [Example 395]
CC50 at 3 days [1]: 13.6 µM | CC50/EC50 (HCV replicon): 278 | EC50 (HCV replicon; Huh-7, 72 h): 0.049 µM

CCCCCOc1nc(N)nc2ccc(-c3cccc(F)c3)nc12 [Example 298, 2-amino-4-n-pentyloxy-6-(m-fluorophenyl)-pyrido[3,2-d]pyrimidine]
CC50 at 3 days [1]: 28 µM | CC50/EC50 (HCV replicon): 77 | EC50 (HCV replicon; [2]): 0.365 µM

COc1ccc(-c2ccc3nc(N)nc(N4CCN(CC(=O)N5CCOCC5)CC4)c3n2)cc1OC [Example 265, 2-amino-4-[N-(piperazino)-acetyl-morpholino]-6-(3,4-dimethoxyphenyl)-pyrido[3,2-d]pyrimidine]
CC50 at 3 days [1]: 2.6 µM | CC50/EC50 (HCV replicon): 84 | EC50 (HCV replicon; [2]): 0.031 µM
